Converted amounts (≈) assume the structure as drawn.
Experiments:
Assay in all cases: MIC (YAG medium)
Format in all cases: cell-based
Aspergillus terreus AT49 = conditions: YAG medium, MIC banded into grades, AT49; for MIC: Aspergillus terreus, read-out: MIC A. terreus 49 (grade)
Method in brief: (§1)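 Spores grown on Sabouraud agar and diluted in YAG medium (1% glucose, 1% ammonium chloride, 0.5% yeast extract) to final inocula of 1-2×10^4 cfu/mL over a 50-0.05 mg/L drug range. Read by OD485 after 24 hrs at 35° C. MIC (mg/L) is the lowest concentration inhibiting growth >70% versus drug-free control.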

Aspergillus terreus AT4 = conditions: YAG medium, MIC banded into grades, AT4; for MIC: Aspergillus terreus, read-out: MIC A. terreus (grade)
Method in brief: as §1

Aspergillus flavus = conditions: YAG medium, MIC banded into grades; for MIC: Aspergillus flavus, read-out: MIC A. flavus (grade)
Method in brief: as §1

[1] = tested on: Aspergillus fumigatus AF210; conditions: YAG medium, MIC banded into grades, AF210; for MIC: Aspergillus fumigatus, read-out: MIC A. fumigatus 210 (grade)
Method in brief: as §1

Aspergillus niger = conditions: YAG medium, MIC banded into grades; for MIC: Aspergillus niger, read-out: MIC A. niger (grade)
Method in brief: as §1

[2] = tested on: Aspergillus fumigatus AF293; conditions: YAG medium, MIC banded into grades, AF293; for MIC: Aspergillus fumigatus, read-out: MIC A. fumigatus (grade)
Method in brief: as §1

| SMILES | MIC (Aspergillus terreus AT49) [µg/mL] | MIC (Aspergillus terreus AT4) [µg/mL] | MIC (Aspergillus flavus) [µg/mL] | MIC [1] [µg/mL] | MIC (Aspergillus niger) [µg/mL] | MIC [2] [µg/mL] | MIC A. terreus 49 (grade) (Aspergillus terreus AT49) | MIC A. terreus (grade) (Aspergillus terreus AT4) | MIC A. flavus (grade) (Aspergillus flavus) | MIC A. fumigatus 210 (grade) [1] | MIC A. niger (grade) (Aspergillus niger) | MIC A. fumigatus (grade) [2] |
| --- | --- | --- | --- | --- | --- | --- | --- | --- | --- | --- | --- | --- |
| CCc1ccnc(N2CCN(c3ccc(NC(=O)C(=O)c4c(-c5ccccc5)cc5ccccn45)cc3)CC2)c1 [Example 75, N-{4-[4-(4-ethyl-pyridin-2-yl)-piperazin-1-yl]-phenyl}-2-oxo-2-(2-phenyl-indolizin-3-yl)-acetamide] | < 1 | < 1 | < 1 | < 1 | < 1 | < 1 | – | – | – | – | – | – |
| Cc1cc(C)nc(NCCNc2ccc(NC(=O)C(=O)c3c(-c4ccccc4)cc4ccccn34)cc2)c1 [Example 92, N-{4-[2-(4,6-dimethyl-pyridin-2-yl-amino)-ethylamino]-phenyl}-2-oxo-2-(2-phenyl-indolizin-3-yl)-acetamide] | < 1 | < 1 | < 1 | < 1 | 1 to 10 (≈ 1.99 to 19.9 µM) | < 1 | – | – | – | – | – | – |
| Cc1cc(C)nc(OCCOc2ccc(NC(=O)C(=O)c3c(-c4ccccc4)cc4ccccn34)cc2)c1 [Example 65, N-{4-[2-(4,6-Dimethyl-pyridin-2-yloxy)-ethoxy]-phenyl}-2-oxo-2-(2-phenyl-indolizin-3-yl)-acetamide] | < 1 | < 1 | < 1 | < 1 | < 1 | < 1 | – | – | – | – | – | – |
| Cc1ccnc(N2CCN(c3ccc(NC(=O)C(=O)c4c(-c5ccccc5)cc5ccccn45)cc3)CC2)c1 [Example 49, N-{4-[4-(4-Methyl-pyridin-2-yl)-piperazin-1-yl]-phenyl}-2-oxo-2-(2-phenyl-indolizin-3-yl)-acetamide] | < 1 | < 1 | < 1 | < 1 | < 1 | < 1 | – | – | – | – | – | – |
| Cc1nccn1CCCOc1ccc(NC(=O)C(=O)c2c(-c3ccccc3)cc3ccccn23)cc1C(C)C [Example 20, N-{3-Isopropyl-4-[3-(2-methyl-imidazol-1-yl)-propoxy]-phenyl}-2-oxo-2-(2-phenyl-indolizin-3-yl)-acetamide] | < 1 | 1 to 10 (≈ 1.92 to 19.2 µM) | < 1 | 1 to 10 (≈ 1.92 to 19.2 µM) | > 10 | 1 to 10 (≈ 1.92 to 19.2 µM) | – | – | – | – | – | – |
| Cc1cccc(N2CCN(c3ccc(NC(=O)C(=O)c4c(-c5ccccc5)cc5ccccn45)cc3)CC2)n1 [Example 43, N-{4-[4-(6-Methyl-pyridin-2-yl)-piperazin-1-yl]-phenyl}-2-oxo-2-(2-phenyl-indolizin-3-yl)-acetamide] | < 1 | < 1 | < 1 | < 1 | < 1 | < 1 | – | – | – | – | – | – |
| Cc1cc(OCCOc2ccc(NC(=O)C(=O)c3c(-c4ccccc4)cc4ccccn34)cc2)cc(C)n1 [Example 71, N-{4-[2-(2,6-Dimethyl-pyridin-4-yloxy)-ethoxy]-phenyl}-2-oxo-2-(2-phenyl-indolizin-3-yl)-acetamide] | < 1 | < 1 | 1 to 10 (≈ 1.98 to 19.8 µM) | < 1 | 1 to 10 (≈ 1.98 to 19.8 µM) | < 1 | – | – | – | – | – | – |
| O=C(Nc1ccc(N2CCN(Cc3cccs3)CC2)cc1)C(=O)c1c(-c2ccccc2)cc2ccccn12 [Example 33, 2-Oxo-2-(2-phenylindolizin-3-yl)-N-[4-(4-thiophen-2-ylmethylpiperazin-1-yl)phenyl] acetamide] | – | – | – | – | – | – | 3 (A grade of 3 represents an MIC of less than 1 mg/L) | 3 (A grade of 3 represents an MIC of less than 1 mg/L) | 3 (A grade of 3 represents an MIC of less than 1 mg/L) | 3 (A grade of 3 represents an MIC of less than 1 mg/L) | 3 (A grade of 3 represents an MIC of less than 1 mg/L) | 3 (A grade of 3 represents an MIC of less than 1 mg/L) |
| O=C(Nc1ccc(C(=O)OC2CCOCC2)c(O)c1)C(=O)c1c(-c2ccccc2)cc2ccccn12 [Example 11, 2-hydroxy-4-[2-oxo-2-(2-phenyl-indolizin-3-yl)-acetylamino]-benzoic acid tetrahydro-pyran-4-yl ester] | < 1 | < 1 | < 1 | < 1 | < 1 | < 1 | – | – | – | – | – | – |
| Cc1cc(C)nc(CCCCc2ccc(NC(=O)C(=O)c3c(-c4ccccc4)cc4ccccn34)cc2)c1 [Example 72, N-{4-[4-(4,6-Dimethyl-pyridin-2-yl)-butyl]-phenyl}-2-oxo-2-(2-phenyl-indolizin-3-yl)-acetamide] | < 1 | < 1 | < 1 | < 1 | < 1 | < 1 | – | – | – | – | – | – |
| O=C(Nc1ccc(N2CCN(Cc3ccco3)CC2)cn1)C(=O)c1c(-c2ccccc2)cc2ccccn12 [Example 34, N-[5-(2-Furan-2-yl-methyl-piperazin-yl)-peridin-2-yl]-2-oxo-2-(2-phenylindolizin-3-yl)-acetamide] | – | – | – | – | – | – | 3 (A grade of 3 represents an MIC of less than 1 mg/L) | 3 (A grade of 3 represents an MIC of less than 1 mg/L) | 3 (A grade of 3 represents an MIC of less than 1 mg/L) | 3 (A grade of 3 represents an MIC of less than 1 mg/L) | 3 (A grade of 3 represents an MIC of less than 1 mg/L) | 3 (A grade of 3 represents an MIC of less than 1 mg/L) |
| CC(C)c1nc(C(C)(C)c2cccc(NC(=O)C(=O)c3c(-c4ccccc4)cc4ccccn34)c2)cn1C [Example 14, N-{3-[1-(2-Isopropyl-1-methyl-1H-imidazol-4-yl)-1-methyl-ethyl]-phenyl}-2-oxo-2-(2-phenyl-indolizin-3-yl)-acetamide] | 1 to 10 (≈ 1.98 to 19.8 µM) | 1 to 10 (≈ 1.98 to 19.8 µM) | 1 to 10 (≈ 1.98 to 19.8 µM) | > 10 | > 10 | > 10 | – | – | – | – | – | – |
| O=C(Nc1ccc(N2CCN(c3ccc(CN4CCOCC4)cc3)CC2)cc1)C(=O)c1c(-c2ccccc2)cc2ccccn12 [Example 56, N-{4-[4-(4-Morpholin-4-ylmethyl-phenyl)-piperazin-1-yl]-phenyl}-2-oxo-2-(2-phenyl-indolizin-3-yl)-acetamide] | < 1 | < 1 | < 1 | < 1 | < 1 | < 1 | – | – | – | – | – | – |
| Cc1ccccc1-c1cc2ccccn2c1C(=O)C(=O)Nc1ccc(N2CCN(Cc3ccco3)CC2)cn1 [Example 35, N-[5-(2-Furan-2-yl-methyl-piperazin-yl)-peridin-2-yl]-2-oxo-2-(2-o-tolyl-indolizin-3-yl)-acetamide] | – | – | – | – | – | – | 3 (A grade of 3 represents an MIC of less than 1 mg/L) | 3 (A grade of 3 represents an MIC of less than 1 mg/L) | 3 (A grade of 3 represents an MIC of less than 1 mg/L) | 3 (A grade of 3 represents an MIC of less than 1 mg/L) | 3 (A grade of 3 represents an MIC of less than 1 mg/L) | 3 (A grade of 3 represents an MIC of less than 1 mg/L) |
| Cc1cc(C)nc(N2CCN(c3ccc(NC(=O)C(=O)c4c(C5CCN(C)CC5)cc5ccccn45)cc3)CC2)c1 [Example 63, N-{4-[4-(4,6-Dimethyl-pyridin-2-yl)-piperazin-1-yl]-phenyl}-2-[2-(1-methyl-piperidin-4-yl)-indolizin-3-yl]-2-oxo-acetamide] | > 10 | > 10 | > 10 | > 10 | > 10 | > 10 | – | – | – | – | – | – |
